Data set [1] deals with Echinochloa oryzoides (Ard.) Fritsch. As to the kind of experiment: Preemergence weed control under flooded paddy conditions, ECHORC (Watergrass (Calif.)). As to herbicidal effect rating, ECHORC: meaning of each grade not given here. Format: in vivo. The following applies: flooded paddy; for ECHORC: herbicidal effect rating 0-9, three to four weeks after treatment.
Data set [2] has as its system Oryza sativa, (L.) Tebonnet. As to the kind of experiment: Rice tolerance to post-transplant applications under flooded paddy conditions (Example 187), ORYSAT (Rice, Tebonnet). As to herbicidal effect rating ORYSAT: meaning of each grade not given here. The conditions noted are these: for ORYSAT: herbicidal effect rating 0-9, three to four weeks after treatment.
The test system of data set [3] is Monochoria vaginalis, Presl. As to the kind of experiment: Preemergence weed control under flooded paddy conditions, MOOVA (Monochoria). As to herbicidal effect rating, MOOVA: meaning of each grade not given here. Format: in vivo. The following applies: flooded paddy; for MOOVA: herbicidal effect rating 0-9, three to four weeks after treatment.
For data set [4], the system named is Cyperus serotinus, Rottb. Briefly: Preemergence weed control under flooded paddy conditions, CYPSE (Flatsedge). As to herbicidal effect rating, CYPSE: meaning of each grade not given here. Format: in vivo. The conditions noted are these: for CYPSE: herbicidal effect rating 0-9, three to four weeks after treatment.
The test system of data set [5] is Sagittaria pygmaea, L. As to the kind of experiment: Preemergence weed control under flooded paddy conditions, SAGPY (Arrowhead (Pygmaea)). As to herbicidal effect rating, SAGPY: meaning of each grade not given here. Type of data set: in vivo. The following applies: flooded paddy; for SAGPY: herbicidal effect rating 0-9, three to four weeks after treatment.
Data set [6] deals with Cyperus iria. Briefly: Preemergence weed control under flooded paddy conditions, CYPIR (Rice Flatsedge). As to herbicidal effect rating, CYPIR: meaning of each grade not given here. The following applies: flooded paddy; for CYPIR: herbicidal effect rating 0-9, three to four weeks after treatment. Format: in vivo.
Setting [7] is: Rate 0.0320 kg/ha, preemergence, rated 3-4 weeks after treatment.
Where [8] appears, read: Rate 0.0620 kg/ha, preemergence, rated 3-4 weeks after treatment.
The mark [9] stands for this setting: Rate 0.1250 kg/ha, preemergence, rated 3-4 weeks after treatment.
Where [10] appears, read: Rate 0.2500 kg/ha, preemergence, rated 3-4 weeks after treatment.
[11] abbreviates: Rate 0.0320 kg/ha, preemergence weeds, rated three to four weeks after treatment.
Where [12] appears, read: Rate 0.0620 kg/ha, preemergence weeds, rated three to four weeks after treatment.
The mark [13] stands for this setting: Rate 0.1250 kg/ha, preemergence weeds, rated three to four weeks after treatment.
Setting [14] is: Rate 0.2500 kg/ha, preemergence weeds, rated three to four weeks after treatment.
Setting [15] is: 0.0320 kg/ha, preemergence weeds.
Setting [16] is: 0.0620 kg/ha, preemergence weeds.
The mark [17] stands for this setting: 0.1250 kg/ha, preemergence weeds.
Setting [18] is: 0.2500 kg/ha, preemergence weeds.
Setting [19] is: 0.0313 kg/ha, preemergence, rated three to four weeks after treatment.
[20] abbreviates: 0.0625 kg/ha, preemergence, rated three to four weeks after treatment.
[21] abbreviates: 0.1250 kg/ha, preemergence, rated three to four weeks after treatment.
[22] abbreviates: 0.2500 kg/ha, preemergence, rated three to four weeks after treatment.

Regarding `COCC(C)OC(=O)C(C)(C)Oc1ccc(C)cc1-c1nsc2ccc(-n3c(=O)cc(C(F)(F)F)n(C)c3=O)cc12` (stereo not drawn) [Example 532, Propionic acid, 2-{{2-{5-[3,6-dihydro-3-methyl-2,6-dioxo-4-(trifluoromethyl)-1(2H)-pyrimidinyl]-1,2-benzisothiazol-3-yl}-p-tolyl}oxy}-2-methyl-, 2-methoxy-1-methylethyl ester], the “herbicidal effect rating, ECHORC” value in data set [1] (setting [7]), in data set [1] (setting [8]), in data set [1] (setting [9]) and in data set [1] (setting [10]) was 9.0 in each case. Further, the “herbicidal effect rating ORYSAT” value in data set [2] (Rate 0.0320 kg/ha, rated 3-4 weeks after treatment) worked out at 0.0; in data set [2] (Rate 0.0620 kg/ha, rated 3-4 weeks after treatment) it was 0.0; in data set [2] (Rate 0.1250 kg/ha, rated 3-4 weeks after treatment) it was 0.0; in data set [2] (Rate 0.2500 kg/ha, rated 3-4 weeks after treatment), 2.0. Moreover, the “herbicidal effect rating, MOOVA” value in data set [3] (setting [7]), in data set [3] (setting [8]), in data set [3] (setting [9]) and in data set [3] (setting [10]) was 9.0 throughout. Besides, the “herbicidal effect rating, CYPSE” value in data set [4] (setting [7]), in data set [4] (setting [8]), in data set [4] (setting [9]) and in data set [4] (setting [10]) was 0.0 each time. In addition, the “herbicidal effect rating, SAGPY” value in data set [5] (setting [7]) came out at 0.0; in data set [5] (setting [8]), 0.0; in data set [5] (setting [9]), 0.0; in data set [5] (setting [10]), 9.0. The “herbicidal effect rating, CYPIR” value in data set [6] (setting [7]), in data set [6] (setting [8]), in data set [6] (setting [9]) and in data set [6] (setting [10]) was 9.0 in each case.

Regarding `Cc1ccc(OCC(=O)NO)c(-c2nsc3ccc(-n4c(=O)cc(C(F)(F)F)n(C)c4=O)cc23)c1` [Example 313, Acetohydroxamic acid, 2-{{2-{5-[3,6-dihydro-3-methyl-2,6-dioxo-4-(trifluoromethyl)-1(2H)-pyrimidinyl]-1,2-benzisothiazol-3-yl}-p-tolyl}oxy}-], the “herbicidal effect rating, ECHORC” value in data set [1] (setting [11]) worked out at 4.0; in data set [1] (setting [12]) it was 5.0; in data set [1] (setting [13]), 6.0; in data set [1] (setting [14]) it was 9.0. For the same molecule, the “herbicidal effect rating ORYSAT” value in data set [2] (Rate 0.0320 kg/ha, rated three to four weeks after treatment) is 0.0; in data set [2] (Rate 0.0620 kg/ha, rated three to four weeks after treatment), 1.0; in data set [2] (Rate 0.1250 kg/ha, rated three to four weeks after treatment), 3.0; in data set [2] (Rate 0.2500 kg/ha, rated three to four weeks after treatment), 4.0. Also, the “herbicidal effect rating, MOOVA” value is 0.0 in data set [3] (setting [11]), 9.0 in data set [3] (setting [12]), 9.0 in data set [3] (setting [13]) and 9.0 in data set [3] (setting [14]). Also, the “herbicidal effect rating, CYPSE” value was 0.0 in data set [4] (setting [11]), 0.0 in data set [4] (setting [12]), 0.0 in data set [4] (setting [13]) and 2.0 in data set [4] (setting [14]). Moreover, the “herbicidal effect rating, SAGPY” value in data set [5] (setting [11]) was determined as 0.0; in data set [5] (setting [12]), 0.0; in data set [5] (setting [13]), 0.0; in data set [5] (setting [14]), 3.0. Also, the “herbicidal effect rating, CYPIR” value turned out to be 0.0 in data set [6] (setting [11]), 0.0 in data set [6] (setting [12]), 9.0 in data set [6] (setting [13]) and 9.0 in data set [6] (setting [14]).

For `Cn1c(C(F)(F)F)cc(=O)n(-c2ccc3snc(C(=O)OCCCO)c3c2)c1=O` [Example 410, 1,2-Benzisothiazole-3-carboxylic acid, 5-[3,6-dihydro-3-methyl-2,6-dioxo-4-(trifluoromethyl)-1(2H)-pyrimidinyl]-, 3-hydroxypropyl ester], the ECHORC is 0.0 in data set [1] (setting [15]), 0.0 in data set [1] (setting [16]), 9.0 in data set [1] (setting [17]) and 9.0 in data set [1] (setting [18]). Moreover, the ORYSAT in data set [2] (0.0320 kg/ha) is reported as 0.0; in data set [2] (0.0620 kg/ha), 3.0; in data set [2] (0.1250 kg/ha), 5.0; in data set [2] (0.2500 kg/ha), 7.0. The MOOVA in data set [3] (setting [15]), in data set [3] (setting [16]), in data set [3] (setting [17]) and in data set [3] (setting [18]) was 9.0 in each case. Further, the CYPSE came out at 2.0 in data set [4] (setting [15]), 5.0 in data set [4] (setting [16]), 9.0 in data set [4] (setting [17]) and 9.0 in data set [4] (setting [18]). In addition, the SAGPY is recorded as 3.0 in data set [5] (setting [15]), 7.0 in data set [5] (setting [16]), 9.0 in data set [5] (setting [17]) and 9.0 in data set [5] (setting [18]). Also, the CYPIR in data set [6] (setting [15]), in data set [6] (setting [16]), in data set [6] (setting [17]) and in data set [6] (setting [18]) was 9.0 throughout.

In the case of `CSCc1nsc2ccc(-n3c(=O)cc(C(F)(F)F)n(C)c3=O)cc12` [Example 21, 1-Methyl-3-{3-{(methylthio)methyl]-1,2-benzisothiazol-5-yl}-6-(trifluoromethyl)-2,4(1H,3H)-pyrimidinedione], the “herbicidal effect rating, ECHORC” value was 0.0 in data set [1] (setting [19]), 0.7 in data set [1] (setting [20]), 2.7 in data set [1] (setting [21]) and 4.7 in data set [1] (setting [22]). Moreover, the “herbicidal effect rating, ORYSAT (rice tolerance)” value is listed as 1.7 in data set [2] (0.0313 kg/ha, rated three to four weeks after treatment); 2.0 in data set [2] (0.0625 kg/ha, rated three to four weeks after treatment); 2.3 in data set [2] (0.1250 kg/ha, rated three to four weeks after treatment); 4.3 in data set [2] (0.2500 kg/ha, rated three to four weeks after treatment). The “herbicidal effect rating, MOOVA” value in data set [3] (setting [19]) is 4.0; in data set [3] (setting [20]), 6.0; in data set [3] (setting [21]), 7.5; in data set [3] (setting [22]), 9.0. The “herbicidal effect rating, CYPSE” value in data set [4] (setting [19]), in data set [4] (setting [20]), in data set [4] (setting [21]) and in data set [4] (setting [22]) was 0.0 throughout. The “herbicidal effect rating, SAGPY” value in data set [5] (setting [19]), in data set [5] (setting [20]), in data set [5] (setting [21]) and in data set [5] (setting [22]) was 0.0 in each case. In addition, the “herbicidal effect rating, CYPIR” value in data set [6] (setting [19]) is recorded as 0.0; in data set [6] (setting [20]), 0.0; in data set [6] (setting [21]) it was 0.5; in data set [6] (setting [22]) it was 1.0.

(Values after patent EP0908457B1, “3-(1,2-benzisothiazol- and isoxazol-5-Y1)-2,4(1H,3H)-pyrimidinedione or thione and 3-(1,2-benzisothiazol- and isoxazol-5-y1)-4(3H)-pyrimidinone or thione herbicidal agents” (BASF AKTIENGESELLSCHAFT, priority 1997, dated 1999).)
